Source: patent publication US20100034762A1, “Novel enrichment methods for gallic acid esters including 1-O-galloy1-bata-D-glucose and mucic acid gallates medicaments, therapeutic applications and methods of treatment thereof” (priority 2008, published 2010)

Experiments:
[1] = Oxygen Radical Absorbance Capacity (ORAC); details: Trolox equivalents

SMILES	DPPH IC50 (DPPH scavenging) [mg/L]	ORAC (μmol TE/gm) [1] [μmol TE/gm]
O=C1O[C@H]([C@@H](O)CO)C(O)=C1O [Vitamin C, Ascorbic acid]	1.93	3400
O=C(O)c1cc(O)c(O)c(O)c1 [Gallic acid, gallic acid]	0.32	6712
